# Source: US11110098B2, “Methods and medicaments for the treatment of renal cell carcinoma” (University of Kansas, priority 2017, dated 2021)
# Experiments:
# A498 cells = conditions: A498, in vitro; cited from earlier work
# Caki-2 = conditions: Caki-2, in vitro; cited from earlier work
# [1] = system: pERK1/2, ERK1/2, pCREB, CREB, VEGF; assay: Immunoblotting of xenograft tumor lysates; assay type: in vivo, Nu/Nu mice; conditions: for VEGF protein levels in tumors compared to vehicle: OPC31260 IP, daily 28 days
# Procedure: (§1) Female Athymic Nude-Foxn1^nu mice (Nu/Nu mice), 7-8 weeks old and weighing ˜25 g were procured from Envigo/Harlan. All animal studies were carried out according to the protocols approved by the University of Kansas Medical Center Institutional Animal Care and Use Committee. Mice were subcutaneously injected on the right flank region with 1×10^6 Caki-1 cells in 100 μl of DMEM medium. One week after injection, palpable tumors appeared and tumor volume was measured with calipers following the formula, Tumor volume=(length×width)/2. Once the tumor volume reached ˜80-100 mm^3, mice were randomized into sub-groups based on the tumor volume. Animals were administered vehicle, OPC31260 (30 mg/Kg BWt.), OPC31260 (60 mg/Kg BWt) or dDAVP (1 μg/Kg BWt.) and vehicle (saline) by daily intraperitoneal injection, or tolvaptan (120 mg/Kg BWt. in 1% aqueous solution of hydroxypropyl methylcellulose-dose derived from previous study^31) or vehicle by daily oral gavage for 28 days. Body weights and tumor volumes were measured every alternate day. At the end of the study, mice were injected with BRDU (100 mg/Kg BWt. by IP) 90 minutes before sacrifice. Tumors were harvested, photographed and weighed. Tumors were flash frozen or paraffin embedded for further analysis.
# Tumors from mouse xenografts and cultured 786-O and Caki-1 cells were homogenized in SDS Laemmli buffer and loaded onto 10% SDS-polyacrylamide agarose gel electrophoresis gels, transferred to nitrocellulose membranes and blocked with 5% milk in TBST^32. Membranes were probed with primary antibody followed by wash and horseradish peroxidase secondary antibody application.
# CCRCC = assay: Immunocompetent animal model of spontaneous CCRCC; assay type: in vivo, Vh1Δ/ΔTrp53Δ/ΔRb1Δ/Δ mice; conditions: treatment from 30 weeks after start of tamoxifen till 56 weeks
# From the text: The Vh1^Δ/ΔTrp53^Δ/ΔRb1^Δ/Δ mice (Harlander S et al, Nat Med 2017 23(7):869-877) can spontaneously develop CCRCC. Gene deletion of Vhl and tumor suppressors p53 and Rb 1 will be achieved using a Ksp1.3-CreERT2, tamoxifen-inducible system. For the studies, 6-week old Vh1^Δ/ΔTrp53^Δ/ΔRb1^Δ/ΔKsp1.3-CreERT2 mice will be treated with vehicle (saline) or tamoxifen for 14 days used to obtain wildtype control mice and Vh1^Δ/ΔTrp53^Δ/ΔRb1^Δ/Δ mice with RCC stumors. Starting 30 weeks after start of tamoxifen, the wildtype and Vh1^Δ/ΔTrp53^Δ/ΔRb1^Δ/Δ mice will be treated with vehicle, dDAVP, OPC31260, or tolvaptan till 56 weeks. The effect of V2R activation or inhibition will be monitored by MRI as well as by gross and pathological analysis and of kidneys at sacrifice.
# [2] = assay type: in vivo; conditions: tolvaptan 120 mg/Kg daily oral gavage or dDAVP 1 μg/Kg daily IP, 28 days; for urine osmolality: data not shown
# Procedure: as §1
# Caki-1 cells [3] = assay: Immunostaining of xenograft tumor sections (Ki-67, BRDU, CD31); assay type: in vivo, Nu/Nu mice; conditions: for BRDU staining / incorporation of tumors compared to vehicle / Ki-67 staining of tumors compared to vehicle / tumor micro-vessel density (CD31 staining): OPC31260 IP, tolvaptan 120 mg/Kg oral, dDAVP 1 μg/Kg IP, daily 28 days
# Procedure: as §1
# Tumor tissues were fixed overnight in 4% paraformaldehyde, dehydrated in a graded alcohol series, and embedded in paraffin for histological analysis as previously described^26. Slides with 5 μm tissue sections were heated in a steamer for 20 min in citrate buffer (pH 6.0) to unmask antigens. Slides were further blocked with 10% goat serum (Invitrogen) and then incubated overnight with primary antibody (V2R, CD31, BRDU, Ki67 and p-H3). After washing the slides with PBST, slides were incubated with appropriate fluorescence-labeled secondary antibody (Invitrogen) and streptavidin HRP conjugated (Invitrogen) secondary antibody for immunoflurorescence and immunohistochemistry, respectively. Slides were also incubated in 4′,6-diamidino-2-phenylindole to visualize nuclei. For immunofluorescence staining, slides were mounted with Fluoromount G (Southern Biotech). For immunohistochemistry, slides were developed with DAB (Vector Laboratories) and counterstained with Harris haematoxylin, dehydrated, and mounted with Permount (Fisher Scientific, Waltham, Mass.). All images were captured using a Nikon 80i microscope (Tokyo, Japan) at the KUMC Imaging Center.
# Caki-1 cells [4] = assay: TUNEL assay for apoptosis in xenograft tumor sections; assay type: in vivo, Nu/Nu mice; conditions: OPC31260 IP, tolvaptan 120 mg/Kg oral, dDAVP 1 μg/Kg IP, daily 28 days
# Procedure: as §1
# TUNEL assays were performed to check apoptosis using the in situ Cell Death Detection Kit (Roche Applied Science, Indianapolis, Ind.). Briefly, slides with 5-μm tumor sections were treated to a TUNEL reaction mixture containing terminal deoxynucleotidyl transferase and nucleotides, including tetramethylrhodamine-labeled dUTP. Both Dapi stained and TUNEL-positive nuclei were counted as described for proliferating cell nuclear antigen. All images were captured using a Nikon 80i microscope (Tokyo, Japan) in the KUMC Imaging Center.
# Caki-1 cells [5] = assay: Caki-1 xenograft tumor growth in nude mice; assay type: in vivo, Nu/Nu mice; conditions: for tumor size and weight at sacrifice versus vehicle: tolvaptan 120 mg/Kg daily oral gavage or dDAVP 1 μg/Kg daily IP
# Procedure: as §1, with “One week after injection, palpable tumors appeared and tumor volume was measured with calipers following the formula, Tumor volume=(length×width)/2.” left out
# V1bR = target: T1, V1bR (Homo sapiens, UniProt P47901); conditions: cited from earlier work
# T1 sequence (P47901 1-424): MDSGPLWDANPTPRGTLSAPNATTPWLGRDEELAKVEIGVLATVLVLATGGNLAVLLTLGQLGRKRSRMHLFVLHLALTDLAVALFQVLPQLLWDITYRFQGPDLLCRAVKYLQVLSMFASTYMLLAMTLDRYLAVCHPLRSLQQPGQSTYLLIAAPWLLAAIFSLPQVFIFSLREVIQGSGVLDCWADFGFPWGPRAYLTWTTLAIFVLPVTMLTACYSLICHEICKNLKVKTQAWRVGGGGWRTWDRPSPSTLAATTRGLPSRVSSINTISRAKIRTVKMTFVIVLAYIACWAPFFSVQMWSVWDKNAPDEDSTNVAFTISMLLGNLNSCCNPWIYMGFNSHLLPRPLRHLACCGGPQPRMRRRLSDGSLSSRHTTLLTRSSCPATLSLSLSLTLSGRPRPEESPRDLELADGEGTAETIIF
# [6] = humans; cited from earlier work
# V2R [7] = target: T2, V2R (Homo sapiens, UniProt P30518); conditions: cited from earlier work
# T2 sequence (P30518 whole entry): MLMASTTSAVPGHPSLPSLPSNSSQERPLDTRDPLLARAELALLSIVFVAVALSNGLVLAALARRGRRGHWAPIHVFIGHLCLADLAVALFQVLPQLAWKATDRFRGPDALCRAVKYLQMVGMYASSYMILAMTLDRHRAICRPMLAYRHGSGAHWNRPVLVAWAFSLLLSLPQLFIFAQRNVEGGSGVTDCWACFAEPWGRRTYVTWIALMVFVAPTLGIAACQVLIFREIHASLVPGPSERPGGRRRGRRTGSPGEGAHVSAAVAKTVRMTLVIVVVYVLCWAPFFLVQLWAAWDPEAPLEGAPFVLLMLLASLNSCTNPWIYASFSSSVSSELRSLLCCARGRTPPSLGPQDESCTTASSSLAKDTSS
# V2R [8] = target: T2, V2R; conditions: cited from earlier work; remark: listed apart in the source
# [9] = in vivo; cited from earlier work
# [10] = OPC31260 30/60 mg/kg IP, tolvaptan 120 mg/Kg oral, dDAVP 1 μg/Kg IP, 28 days
# [11] = tolvaptan 120 mg/Kg oral, dDAVP 1 μg/Kg IP
# [12] = dDAVP 1 μg/Kg daily IP injection, day 28
Structure (SMILES),"pCREB levels in tumor lysates [1, 10]","pERK1/2 levels in tumor lysates [1, 10]","VEGF protein levels in tumors compared to vehicle [1, 11]",expected tumor burden / tumor growth (CCRCC),body weight of the mice [2],toxicity [2],urine osmolality [2],BRDU staining / incorporation of tumors compared to vehicle (Caki-1 cells [3]),Ki-67 staining of tumors compared to vehicle (Caki-1 cells [3]),tumor micro-vessel density (CD31 staining) (Caki-1 cells [3]),TUNEL staining of tumors compared to vehicle (Caki-1 cells [4]),tumor size and weight at sacrifice versus vehicle (Caki-1 cells [5]; 28 days),other results
CCOc1ccc2c(c1)C1(CCC(OCCN3CCOCC3)CC1)C(=O)N2S(=O)(=O)c1ccc(C(=O)NC(C)(C)C)cc1OC (stereo not drawn) [satavaptan],–,–,–,–,–,–,–,–,–,–,–,–,effect on dDAVP-induced proliferation (A498 cells): abolished dDAVP-induced proliferation; effect on time-dependent increase in cell proliferation (baseline) (A498 cells): did not reduce; effect on dDAVP-induced proliferation (Caki-2): abolished dDAVP-induced proliferation; effect on time-dependent increase in cell proliferation (baseline) (Caki-2): did not reduce
"NC(=O)CC[C@@H]1NC(=O)[C@H](Cc2ccccc2)NC(=O)[C@H](Cc2ccc(O)cc2)NC(=O)CCSSC[C@@H](C(=O)N2CCC[C@H]2C(=O)N[C@H](CCCN=C(N)N)C(=O)NCC(N)=O)NC(=O)[C@H](CC(N)=O)NC1=O [dDAVP, 1-desamino-8-d-arginine vasopressin]",increased,reduced,did not affect,increased tumor burden,did not significantly change,minimal obvious toxicity,increased,no significant change,significant increase,increased,no significant change,larger than in the vehicle group,"proliferation on V2R activation (A498 cells): increased proliferation; ERK1/2 levels in tumor lysates ([1]; dDAVP 1 μg/Kg IP, 28 days): reduced; proliferation on V2R activation (Caki-2): increased proliferation; tumor volume till day 21 (Caki-1 cells [5]; dDAVP 1 μg/Kg daily IP injection): did not increase significantly; tumor volume by day 28, higher than its baseline (Caki-1 cells [5]; [12]): 16 fold; tumor volume by day 28, higher than vehicle group (Caki-1 cells [5]; [12]): 2 fold"
"Cc1ccccc1C(=O)Nc1ccc(C(=O)N2CCCC(O)c3cc(Cl)ccc32)c(C)c1 (stereo not drawn) [tolvaptan, N-[4-[(7-chloro-2,3,4,5-tetrahydro-5-hydroxy-1H-1-benzazepin-1-yl)carbonyl]-3-methylphenyl]-2-methylbenzamide]",reduced,reduced,significantly reduced,significantly suppress tumor growth,did not significantly change,minimal obvious toxicity,significantly reduced,significantly reduced,significantly reduced,did not appear to alter,increased,smaller and weighed significantly less,"inhibition of V1bR (V1bR): does not inhibit; CREB levels in tumor lysates ([1]; OPC31260 30/60 mg/kg IP, tolvaptan 120 mg/Kg oral, 28 days): reduced; mean absolute bioavailability [6]: 56%; intrinsic V2R agonistic effect (V2R [7]): no intrinsic V2R agonistic effect; effect on cell proliferation and apoptosis compared with OPC31260 (Caki-1 cells [3]; tolvaptan 120 mg/Kg oral versus OPC31260 IP): relatively lower than that of OPC31260; tumor volume versus vehicle (Caki-1 cells [5]; tolvaptan 120 mg/Kg daily oral gavage, 28 days): significantly reduced; selectivity in blocking [3H]AVP binding to human V2R than V1aR (V2R [8]): 29 fold; oral activity compared with OPC31260 [9]: relatively better oral activity than OPC31260"
